Consider one molecule from patent publication US10696660B2, “Rho kinase inhibitors” (priority 2012, dated 2020).

Structures are written as SMILES. Entries after “also recorded” stand apart in the source; their conditions may differ.

In one assay the test system is STAT3. Kind of assay: STAT3 phosphorylation in T cells. The assay is classed as cell-based, human.
The next assay deals with PBMCs. Briefly: ex vivo anti-CD3/CD28 stimulated cytokine production in PBMCs isolated from treated patients. As to conditions: 120 mg/day, days 1 and 8-14. Set-up: species or system human.
A further assay concerns human CD4^+ T cells. Kind of assay: proliferation of T cells in response to TCR stimulation in vitro. Type of assay: cell-based. As to conditions: listed as KD025.
Assay [1] has as its system CD4^+ T cells from RA patients. Kind of assay: cytokine secretion ex vivo by CD3/CD28 stimulated CD4+ T cells from RA patients. As to conditions: listed as KD025. Type of assay: cell-based, human.
In assay [2] the test system is TGF-β-induced STAT3, MLC and SMAD2/3 phosphorylation. Briefly: TGF-β-induced phosphorylation of STAT3, MLC and SMAD2/3 in Tregs. Type of assay: cell-based.

On to `CC(C)NC(=O)COc1cccc(-c2nc(Nc3ccc4[nH]ncc4c3)c3ccccc3n2)c1` [SLx-2119], for which the STAT3 phosphorylation result with STAT3 (Th17-skewing conditions 5 days, then treated 3 hours) is “STAT3 phosphorylation was reduced”. Further, the “phosphorylation of STAT3” value in the assay on STAT3 (pre-treatment, then anti-CD3/CD28 stimulation) is recorded as “reduced phosphorylation of STAT3”. For the same molecule, the “phosphorylation of STAT3, IFR4 and RORγT” value with STAT3 (separate experiment (FIG. 9C)) is “reduced phosphorylation”. The “phosphorylation of STAT3” value in the assay on STAT3 (two different experimental designs, listed as KD025) is “inhibits STAT3 phosphorylation; also recorded: significantly down-regulates”. Moreover, in the assay on PBMCs, the “induction of IL-17 secretion in PBMCs” value is given as “significantly inhibited in PBMCs isolated from four of five patients” and the “induction of IL-21 secretion in PBMCs” value is on record as “significantly inhibited in PBMCs from all five patients”. Moreover, the “proliferation in response to TCR stimulation” value in the assay on human CD4^+ T cells is on record as “inhibits; also recorded: down-regulated their ability to proliferate”. In addition, in assay [1], the “secretion of IFN-γ” value was “inhibits; also recorded: significantly down-regulated”, the “secretion of IL-17” value was “inhibits; also recorded: significantly down-regulated” and the “secretion of IL-21” value was “inhibits; also recorded: significantly down-regulated”. Besides, the “TGF-β-induced STAT3 and MLC phosphorylation” value in assay [2] is “down-regulates”.
